The target of assay [1] is T1, FAAH (Mus musculus, UniProt O08914).
T1 sequence (O08914 1-579): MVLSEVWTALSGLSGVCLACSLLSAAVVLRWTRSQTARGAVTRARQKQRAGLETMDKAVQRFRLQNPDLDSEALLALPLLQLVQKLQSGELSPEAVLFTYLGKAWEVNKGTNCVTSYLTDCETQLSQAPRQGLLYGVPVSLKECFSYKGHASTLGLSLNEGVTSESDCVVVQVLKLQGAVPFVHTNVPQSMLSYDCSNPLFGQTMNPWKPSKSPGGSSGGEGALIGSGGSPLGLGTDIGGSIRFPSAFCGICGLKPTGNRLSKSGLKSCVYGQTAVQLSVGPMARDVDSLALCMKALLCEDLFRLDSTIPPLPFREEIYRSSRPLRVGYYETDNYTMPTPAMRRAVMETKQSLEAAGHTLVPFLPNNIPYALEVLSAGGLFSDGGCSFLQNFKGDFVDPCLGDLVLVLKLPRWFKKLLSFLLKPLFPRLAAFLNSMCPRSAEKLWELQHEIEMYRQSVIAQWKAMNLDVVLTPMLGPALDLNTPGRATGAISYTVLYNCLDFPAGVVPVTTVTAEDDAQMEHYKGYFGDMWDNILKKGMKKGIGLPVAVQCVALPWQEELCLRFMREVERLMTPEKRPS
Put plainly: In vitro competitive activity-based protein profiling, FAAH, mouse. As to conditions: read-out: FAAH % inh. 1 μM (mouse).

For assay [2], the target named is T2, MAGL (Homo sapiens, UniProt Q99685).
T2 sequence (Q99685 1-303): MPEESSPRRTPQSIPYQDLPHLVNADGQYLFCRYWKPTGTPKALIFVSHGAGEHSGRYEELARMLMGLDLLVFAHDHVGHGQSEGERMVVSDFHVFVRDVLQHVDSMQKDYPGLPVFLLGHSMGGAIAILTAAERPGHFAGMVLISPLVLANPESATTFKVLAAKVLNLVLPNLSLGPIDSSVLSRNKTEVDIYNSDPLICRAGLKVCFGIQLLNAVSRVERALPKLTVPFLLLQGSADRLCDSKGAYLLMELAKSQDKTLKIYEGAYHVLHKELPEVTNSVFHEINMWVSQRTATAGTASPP
The experiment in a line: In vitro competitive activity-based protein profiling, MAGL, human. Particulars: for inhibition at 1 µM: read-out: MAGL % inh. 1 μM (human).

The target of assay [3] is T3, FAAH (Homo sapiens, UniProt O00519).
T3 sequence (O00519 1-579): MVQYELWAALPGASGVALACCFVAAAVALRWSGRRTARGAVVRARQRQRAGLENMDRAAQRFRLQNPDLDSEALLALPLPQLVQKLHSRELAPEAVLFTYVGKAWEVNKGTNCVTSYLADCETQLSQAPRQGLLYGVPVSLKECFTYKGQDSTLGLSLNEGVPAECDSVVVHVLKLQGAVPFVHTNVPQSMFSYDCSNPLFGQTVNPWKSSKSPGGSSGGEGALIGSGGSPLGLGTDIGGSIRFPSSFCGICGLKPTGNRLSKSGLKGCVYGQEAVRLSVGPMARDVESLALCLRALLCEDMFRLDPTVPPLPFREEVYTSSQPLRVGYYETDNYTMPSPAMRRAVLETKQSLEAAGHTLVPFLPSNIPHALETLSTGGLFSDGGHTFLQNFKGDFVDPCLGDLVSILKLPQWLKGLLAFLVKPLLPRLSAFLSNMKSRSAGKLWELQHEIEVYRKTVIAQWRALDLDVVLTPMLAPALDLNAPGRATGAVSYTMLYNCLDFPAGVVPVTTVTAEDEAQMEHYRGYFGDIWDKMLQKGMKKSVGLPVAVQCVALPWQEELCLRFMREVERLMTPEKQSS
Put plainly: In vitro competitive activity-based protein profiling, FAAH, human. Particulars: for inhibition at 1 µM: read-out: FAAH % inh. 1 μM (human).

Assay [4] concerns the target T4, MAGL (Mus musculus, UniProt O35678).
T4 sequence (O35678 1-303): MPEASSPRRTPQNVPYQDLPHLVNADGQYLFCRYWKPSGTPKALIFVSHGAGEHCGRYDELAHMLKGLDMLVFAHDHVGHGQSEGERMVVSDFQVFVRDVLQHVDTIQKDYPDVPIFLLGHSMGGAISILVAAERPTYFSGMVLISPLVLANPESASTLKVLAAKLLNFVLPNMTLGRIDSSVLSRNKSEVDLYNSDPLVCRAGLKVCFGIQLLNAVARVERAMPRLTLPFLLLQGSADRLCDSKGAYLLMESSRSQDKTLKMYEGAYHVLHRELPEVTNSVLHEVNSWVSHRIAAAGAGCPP
The experiment in a line: In vitro competitive activity-based protein profiling, MAGL, mouse. As to conditions: read-out: MAGL % inh. 1 μM (mouse).
Experimental: Biological Evaluation In Vitro Competitive Activity-Based Protein Profiling.
Proteomes (mouse brain membrane fraction for mouse assays; human prefrontal cortex membrane fractions for human assays) (50 mL, 1.0 mg/mL total protein concentration) were preincubated with varying concentrations of inhibitors at 37° C. After 30 min, FP-Rh (1.0 mL, 50 mM in DMSO) was added and the mixture was incubated for another 30 min at 37° C. Reactions were quenched with SDS loading buffer (15 μL—4λ) and run on SDS-PAGE.

On to `NC(=O)c1ccc(CN2CCN(C(=O)n3ccc(C(=O)O)n3)CC2)cc1C(F)(F)F` [Example 14, 1-(4-(4-Carbamoyl-3-(trifluoromethyl)benzyl)piperazine-1-carbonyl)-1H-pyrazole-3-carboxylic Acid], for which the inhibition at 1 µM in assay [1] lay within 0 to 25%; in assay [2], 25 to 50%; in assay [3], 0 to 25%; in assay [4], 25 to 50%.

As for `O=C(O)c1ccn(C(=O)N2CC3CN(Cc4cccc(-c5ccccc5)c4)CC3C2)n1` (centres unmarked) [Example 156, 1-(5-([1,1′-biphenyl]-3-ylmethyl)octahydropyrrolo[3,4-c]pyrrole-2-carbonyl)-1H-pyrazole-3-carboxylic acid], the inhibition at 1 µM in assay [1] was above 75%; in assay [2], above 75%; in assay [3], 0 to 25%; in assay [4], above 75%.

Turning to `O=C(O)c1ccn(C(=O)N2CCC3(CCN(Cc4cccc(-c5ccccc5)c4)C3)CC2)n1` [Example 73, 1-(2-([1,1′-biphenyl]-3-ylmethyl)-2,8-diazaspiro[4.5]decane-8-carbonyl)-1H-pyrazole-3-carboxylic acid], the inhibition at 1 µM in assay [1] was 50 to 75%; in assay [2], above 75%; in assay [3], 0 to 25%; in assay [4], above 75%.

Take `O=C(O)c1ccn(C(=O)N2CCC3(CCN(Cc4cccc(C(F)(F)F)c4)C3)CC2)n1` [Example 192, 1-(2-(3-(trifluoromethyl)benzyl)-2,8-diazaspiro[4.5]decane-8-carbonyl)-1H-pyrazole-3-carboxylic acid]: the inhibition at 1 µM in assay [1] is 0 to 25%; in assay [2], above 75%; in assay [3], 0 to 25%; in assay [4], 25 to 50%.

As to `O=C(O)c1ccn(C(=O)N2CCC(OCc3cc(F)cc(Cl)c3)CC2)n1` [Example 42, 1-(4-((3-chloro-5-fluorobenzyl)oxy)piperidine-1-carbonyl)-1H-pyrazole-3-carboxylic acid], the inhibition at 1 µM was 0 to 25% in assay [1], above 75% in assay [2], above 75% in assay [3] and above 75% in assay [4]. In addition, the IC50 in assay [2] and in assay [3] was 100 to 1000 nM in each case.

For the compound `NC(=O)c1ccn(C(=O)N2CCC3(CCN(Cc4ccc(N5CCOCC5)cc4Cl)C3)CC2)n1` [Example 197, 1-(2-(2-chloro-4-morpholinobenzyl)-2,8-diazaspiro[4.5]decane-8-carbonyl)-1H-pyrazole-3-carboxamide], the inhibition at 1 µM in assay [1], in assay [2], in assay [3] and in assay [4] was above 75% throughout. For the same compound, the 50% inhibitory concentration (IC50) in assay [3] fell in the range of 100 to 1000 nM.

Regarding `NC(=O)c1ccn(C(=O)N2CC3CN(Cc4ccc(Cl)cc4)CC3C2)n1` (centres unmarked) [Example 203, 1-(5-(4-chlorobenzyl)octa-hydropyrrolo[3,4-c]pyrrole-2-carbonyl)-1H-pyrazole-3-carboxamide], the inhibition at 1 µM in assay [1], in assay [2], in assay [3] and in assay [4] was above 75% throughout.

With `O=C(O)c1ccn(C(=O)N2CCN(Cc3cccc(Oc4ccncn4)c3)CC2)n1` [Example 63, 1-(4-(3-(pyrimidin-4-yloxy)benzyl)piper-azine-1-carbonyl)-1H-pyrazole-3-carboxylic acid], the inhibition at 1 µM was 0 to 25% in assay [1], 25 to 50% in assay [2], 50 to 75% in assay [3] and 0 to 25% in assay [4].

Turning to `CN(Cc1cc(Cl)ccc1C(F)(F)F)C1CCN(C(=O)n2ccc(C(=O)O)n2)CC1` [Example 81, 1-(4-((5-chloro-2-(trifluoromethyl)benzyl)(methyl)amino)piperidine-1-carbonyl)-1H-pyrazole-3-carboxylic acid], the inhibition at 1 µM was 0 to 25% in assay [1], above 75% in assay [2], 50 to 75% in assay [3] and above 75% in assay [4]. The IC50 in assay [3] was 100 to 1000 nM.

With `O=C(O)c1ccn(C(=O)N2CCN(Cc3cccc(Oc4ccccn4)c3)CC2)n1` [Example 52], the inhibition at 1 µM in assay [1] was 0 to 25%; in assay [2], above 75%; in assay [3], 0 to 25%; in assay [4], above 75%.

With `O=C(O)c1ccn(C(=O)N2CCC3(CCN(Cc4ccc(Oc5ccc(Cl)cc5)cc4)C3)CC2)n1` [Example 75, 1-(2-(4-(4-chlorophenoxy)benzyl)-2,8-diazaspiro[4.5]decane-8-carbonyl)-1H-pyrazole-3-carboxylic acid], the inhibition at 1 µM in assay [1] is 50 to 75%; in assay [2], above 75%; in assay [3], 0 to 25%; in assay [4], 50 to 75%.

On to `O=C(O)c1ccn(C(=O)N2CCN(Cc3ccc(OC(F)(F)F)cc3-c3nnco3)CC2)n1` [Example 68, 1-(4-(2-(1,3,4-oxadiazol-2-yl)-4-(trifluoromethoxy)benzyl)piperazine-1-carbonyl)-1H-pyrazole-3-carboxylic acid], for which the inhibition at 1 µM is 0 to 25% in assay [1], above 75% in assay [2], 0 to 25% in assay [3] and above 75% in assay [4].

On to `NC(=O)c1ccn(C(=O)N2CCN(Cc3ccc(C(F)(F)F)cc3N3CCCC3)CC2)n1` [Example 173, 1-(4-(2-(pyrrolidin-1-yl)-4-(trifluoromethyl)benzyl)piperazine-1-carbonyl)-1H-pyrazole-3-carboxamide], for which the inhibition at 1 µM in assay [1] is 50 to 75%; in assay [2] it was above 75%; in assay [3] it was above 75%; in assay [4], above 75%.

Regarding `O=C(O)c1ccn(C(=O)N2CCN(Cc3ccc(Cl)cc3)CC2)n1` [Example 1, 1-(4-(4-chlorobenzyl)piperazine-1-carbonyl)-1H-pyrazole-3-carboxylic Acid], the inhibition at 1 µM lay within 0 to 25% in assay [1], 25 to 50% in assay [2] and 50 to 75% in assay [4]. In addition, the inhibition at 10 µM in assay [3] (read-out: FAAH % inh. (human) at 10 uM) is above 75%.

Consider `O=C(O)c1ccn(C(=O)N2CC3CN(Cc4cc(F)cc(Cl)c4)CC3C2)n1` (centres unmarked) [Example 115, 1-(5-(3-chloro-5-fluorobenzyl)octa-hydropyrrolo[3,4-c]pyrrole-2-carbonyl)-1H-pyrazole-3-carboxylic acid], for which the inhibition at 1 µM was above 75% in assay [1], 25 to 50% in assay [2], 50 to 75% in assay [3] and 0 to 25% in assay [4].

`NC(=O)c1ccn(C(=O)N2CCC3(CCN(Cc4ccc(N5CCCC5)cc4C(F)(F)F)C3)CC2)n1` [Example 195, 1-(2-(4-(pyrrolidin-1-yl)-2-(trifluoromethyl)benzyl)-2,8-diazaspiro[4.5]decane-8-carbonyl)-1H-pyrazole-3-carboxamide]: the inhibition at 1 µM was above 75% in assay [1], above 75% in assay [2], above 75% in assay [3] and 0 to 25% in assay [4].

As a reminder, the IC50 is the concentration needed to halve the response being measured.

For the origin of these results see patent publication US10266497B2 (ABIDE THERAPEUTICS, INC., priority 2017, dated 2019).
